From US20230338647A1, “SUBCUTANEOUSLY IMPLANTED DEVICE FOR GASTROINTESTINAL ADMINISTRATION OF SUBSTANCES” (Endopump Ltd., priority 2018, published 2023)

Experiments:
[1] = Solubility of levodopa esters and carbidopa propyl ester in water acidified with acetic acid; assay type: physicochemical
Protocol: Without limitation, in one example, substance 14 may include several levodopa esters, including the ethyl ester, propyl ester, isopropyl ester and butyl ester. In experiments, these esters were successfully dissolved in water to which was added acetic acid until attaining pH 5 (in some cases pH 4.5). […] The propyl ester of carbidopa was solubilized under the same conditions and a clear solution of 100 mg/ml of the carbidopa propyl ester was obtained. A mixture of each of the above levodopa esters with carbidopa propyl ester was prepared at a ratio of 4:1 (levodopa ester/carbidopa ester) and a clear solution was obtained. The solution of the mixture was stable for at least two weeks based on chromatographic determination of levodopa esters and carbidopa ester. The formulations of the levodopa esters together with carbidopa ester were prepared in diluted acetic acid and ascorbic acid at a pH 5. Each one of the above mentioned esters have good stability.

[2] = Dissolution of L-DOPA/carbidopa/ascorbic acid mixture in 0.2 N HCl; assay type: physicochemical; conditions: 200 mg L-DOPA, 50 mg carbidopa, 2.5 mg ascorbic acid in 3.5 ml of 0.2 N HCl, vortexed and sonicated
Protocol: 3.5 ml of 0.2 N HCl were added to 200 mg of L- DOPA, 50 mg of carbidopa and 2.5 mg of ascorbic acid and the mixture was vortexed and then sonicated. […] Then 1N HCl was added dropwise till all L-DOPA was dissolved.

CCCOC(=O)C(C)(Cc1ccc(O)c(O)c1)NN (centres unmarked) [carbidopa propyl ester]
soluble at a concentration of / clear solution obtained ([1]; water with acetic acid added until pH 5 (in some cases pH 4.5)): ≥ 100 mg/mL

CCCOC(=O)[C@@H](N)Cc1ccc(O)c(O)c1 [propyl ester]
soluble at a concentration of / clear solution obtained ([1]; pH 5): ≥ 400 mg/mL

N[C@@H](Cc1ccc(O)c(O)c1)C(=O)O [L- DOPA, L-3,4-dihydroxyphenylalanine]
dissolution of L-DOPA (in words) [2]: did not fully dissolve

CCOC(=O)[C@@H](N)Cc1ccc(O)c(O)c1 [ethyl ester]
relative solubility among the levodopa esters (in words) [1]: highest solubility

CC(C)OC(=O)[C@@H](N)Cc1ccc(O)c(O)c1 [isopropyl ester]
solubility ([1]; pH 5, aqueous buffer, thermodynamic from solid): ≥ 400 mg/mL
